Assay results published in patent US20020052363A1, “Inhibitors of prenyl-protein transferase” (priority 2000, published 2002).

System: prenyl-protein transferases
Test: the disclosed assays (not specified which)

Cc1cccc(Oc2cc(Cn3c(CN4CCN(C(=O)OC(C)(C)C)CC4)cnc3C)ccc2C#N)n1 [Example 1 Step G, 1-(tert-butoxycarbonyl)-4-[1-(3-((6-methyl-2-pyridyl)oxy)-4-cyanobenzyl)-2-methyl-5-imidazolylmethyl]piperazine]
activity in the disclosed assays: active
